The conditions of data set [1]: injected into the vitreous body of a human; package insert of ranibizumab; cited from earlier work.
Data set [2] has as its system choroidal neovascularization (CNV). Briefly: Mouse model of choroidal neovascularization (CNV) induced by laser irradiation; CNV volume at 7 days. The data set is classed as in vivo. The conditions noted are these: 7 days after laser irradiation; for CNV suppression rate: based on non-treated group. As to the method:
In the CNV model, macrophages migrate by the initiation of an inflammation by laser irradiation, and as a result thereof, VEGF is produced, neovascular vessels are generated, and increased vascular permeability is observed.
The both eyes of a male C57BL/6J mice having a body weight of about 20 g (6-week old) were irradiated with laser (irradiated by 4 to 6 spots per one eye) to experimentally induce CNV. As mentioned below, the drugs were administered by an anti-VEGF antibody alone and ranirestat alone, respectively, or by a combination of the two drugs. […] As the anti-VEGF antibody, a mouse anti-VEGF antibody purchased from R&D Systems was used. The number of examples was five per a group, and the following four groups were set.
(a) Untreated group (b) 3 mg/kg ranirestat-administered group: 3 mg/kg of ranirestat was forcibly and orally administered once a day (3 mg/kg/day) (c) Anti-VEGF antibody-administered group: ing of an anti-VEGF antibody was administered by intravitreal injection (d) Combination use group: ing of an anti-VEGF antibody was administered by intravitreal injection+ranirestat was administered (3 mg/kg was forcibly and orally administered once a day (3 mg/kg/day))
Ranirestat was administered from the days of the laser irradiation (20 to 30 minutes after the irradiation) to 7 days after the irradiation. The anti-VEGF antibody was administered by intravitreal injection immediately after the laser irradiation. After completion of the laser irradiation, the mice were bred by general breeding for 7 days, and thereafter the eye balls were excised and the volume of CNV appeared in the choroid was measured. The induction and evaluation of CNV were conducted by the following procedures.
Each mouse was anesthetized by administering 0.30 mL of tribromoethanol to the abdominal cavity of the mouse, and a mydriatics and a local anesthesia were placed a drop of the eyes. Thereafter the both eyes of the mouse were irradiated with laser (wavelength: 532 nm, output: 200 mW, irradiation time: 100 ms, spot size: 100 μm) by 4 to 6 spots per one eye using a laser photocoagulation device (Lumenis). CNV appeared by the laser irradiation, and thereafter the CNV volume increased.
At 7 days after the laser irradiation, each mouse was euthanized under tribromoethanol anesthesia, and the left and right eye balls of the mouse were excised. […] The volume of CNV was measured by importing an image in the vicinity of CNV by a confocal laser microscope (Zeiss LSM5 Pascal) and using image analysis software (NIH Image J). […]
Ranirestat was administered from the day of the laser irradiation (20 to 30 minutes after the irradiation) to seven days after the irradiation. […] The CNV volume was measured in a similar manner to Experiment 1.

Regarding “ranibizumab: typical anti-VEGF agent, used as intravitreal injection”, the elimination half-life in data set [1] is 220 h.

As for `O=C1C[C@@]2(C(=O)N1)C(=O)N(Cc1ccc(Br)cc1F)C(=O)c1cccn12` [ranirestat, (3R)-2′-(4-bromo-2-fluorobenzyl)spiro[pyrrolidine-3,4′(1′H)pyrrolo[1,2-a]pyrazine]-1′,2,3′,5(2′H)-tetrone], the CNV suppression rate is 18.3% in data set [2] (Experiment 1, male C57BL/6J mice, ranirestat 3 mg/kg/day oral, anti-VEGF antibody by intravitreal injection) and 39.3% in data set [2] (Experiment 2, ranirestat 10 mg/kg/day oral, anti-VEGF antibody 1 ng by intravitreal injection). For the same compound, the “effect of suppressing the CNV volume as compared to the non-treated group” value in data set [2] (Experiment 1, ranirestat 3 mg/kg/day oral, anti-VEGF antibody intravitreal) is “an effect of suppressing the CNV volume was observed but there was no significant difference”; in data set [2] (Experiment 2, ranirestat 10 mg/kg/day oral, anti-VEGF antibody 1 ng intravitreal), “a significant effect of suppressing the CNV volume was observed”.

Source of the values: patent publication US20140302009A1, “Medicinal Agent for Prevention or Treatment of Diseases Associated with Intraocular Neovascularization and/or Intraocular Vascular Hyperpermeability” (Sanwa Kagaku Kenkyusho Co., Ltd., priority 2011, published 2014).
